Laboratory results published in patent US20160158200A1, “Combinations of Hepatitis C Virus Inhibitors” (priority 2013, published 2016).

Tested on: HCV genotype-1a variant with glutamine 30 changed to glutamate in the NS5A protein
Assay type: cell-based
Conditions: test compound titrated with BMS-790052 fixed at 200 nM; genotype 1a Q30E replicon
Method in brief: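 Synergy was assessed by combining several fixed amounts of an NS5A-targeting compound with a titration of the second compound of interest.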

Structure (SMILES) | Fold-Synergistic 1a (Q30E) [fold]
CC1([C@H](NC(=O)C2CCC(F)(F)CC2)c2nc3ccc(C#Cc4ccc5nc([C@@H](NC(=O)C6CCC(F)(F)CC6)C6(C)CC6)[nH]c5c4)cc3[nH]2)CC1 [Compound B67] | >100
CC1([C@H](NC(=O)C(C)(C)C(C)(C)O)c2nc3ccc(C#Cc4ccc5nc([C@@H](NC(=O)C(C)(C)C(C)(C)O)C6(C)CC6)[nH]c5c4)cc3[nH]2)CC1 [Compound B68] | >100
CC(C)(C)[C@H](NC(=O)C(C)(C)C(C)(C)O)c1ncc(-c2ccc(-c3ccc(-c4cnc([C@@H](NC(=O)C(C)(C)C(C)(C)O)C(C)(C)C)[nH]4)cc3)cc2)[nH]1 [Compound B69] | >100
CC(C)(C(=O)N[C@H](c1ncc(-c2ccc(-c3ccc(-c4cnc([C@@H](NC(=O)C(C)(C)C5CCCC5)C(C)(C)C)[nH]4)cc3)cc2)[nH]1)C(C)(C)C)C1CCCC1 [Compound B82] | >100
CN(C)C(=N[C@H](c1ncc(-c2ccc(-c3ccc(-c4cnc([C@@H](NC(=O)C(C)(C)C5CCCC5)C(C)(C)C)[nH]4)cc3)cc2)[nH]1)C(C)(C)C)N(C)C [Compound B83] | >100
CC(C)(C)[C@H](NC(=O)C1(C2(O)CCNCC2)CCC1)c1ncc(-c2ccc(-c3ccc(-c4cnc([C@@H](NC(=O)C5(C6(O)CCOCC6)CCC5)C(C)(C)C)[nH]4)cc3)cc2)[nH]1 [Compound B84] | >100
CN(C)C(=N[C@H](c1ncc(-c2ccc(-c3ccc(-c4cnc([C@@H](NC(=O)C5(C6(O)CCNCC6)CCC5)C(C)(C)C)[nH]4)cc3)cc2)[nH]1)C(C)(C)C)N(C)C [Compound B85] | >10
CC(C)(C(=O)N[C@H](c1ncc(-c2ccc(-c3ccc(-c4cnc([C@@H](NC(=O)C(C)(C)C5=CCCCC5)C(C)(C)C)[nH]4)cc3)cc2)[nH]1)C(C)(C)C)C1=CCCCC1 [Compound B86] | >100
CN(C)C(=N[C@H](c1ncc(-c2ccc(-c3ccc(-c4cnc([C@@H](NC(=O)C(C)(C)C5=CCCCC5)C(C)(C)C)[nH]4)cc3)cc2)[nH]1)C(C)(C)C)N(C)C [Compound B87] | >100
CC(C)C(C)(C)C(=O)N[C@H](c1ncc(-c2ccc(-c3ccc(-c4cnc([C@@H](NC(=O)C(C)(C)C(C)C)C(C)(C)C)[nH]4)cc3)cc2)[nH]1)C(C)(C)C [Compound B88] | >100
CC(C)(C(=O)N[C@H](c1ncc(-c2ccc(-c3ccc(-c4cnc([C@@H](NC(=O)C(C)(C)C5CCOCC5)C(C)(C)C)[nH]4)cc3)cc2)[nH]1)C(C)(C)C)C1CCOCC1 [Compound B98] | >100
CC1([C@H](NC(=O)C(C)(C)C(C)(C)O)c2ncc(-c3ccc(-c4ccc(-c5cnc([C@@H](NC(=O)C(C)(C)C(C)(C)O)C6(C)CC6)[nH]5)cc4)cc3)[nH]2)CC1 [Compound B148] | >100
CC1([C@H](NC(=O)C2(C(C)(C)O)CC2)c2ncc(-c3ccc(-c4ccc(-c5cnc([C@@H](NC(=O)C6(C(C)(C)O)CC6)C6(C)CC6)[nH]5)cc4)cc3)[nH]2)CC1 [Compound B149] | >100
CC(O)(CC1CC1)C(=O)N[C@H](c1nc(-c2ccc(-c3ccc(-c4cnc([C@@H](NC(=O)C(C)(O)CC5CC5)C(C)(C)C)[nH]4)cc3)cc2)c[nH]1)C(C)(C)C (stereo partly shown) [Compound B-162] | >100
C=CC(C)(C)C(=O)N[C@H](c1nc(-c2ccc(-c3ccc(-c4cnc([C@@H](NC(=O)C(C)(C)C=C)C(C)(C)C)[nH]4)cc3)cc2)c[nH]1)C(C)(C)C.O=C(O)C(F)(F)F [Compound B-166] | >100
CC(C)(C(=O)N[C@H](c1nc(-c2ccc(-c3ccc(-c4cnc([C@@H](NC(=O)C(C)(C)C5CC5)C(C)(C)C)[nH]4)cc3)cc2)c[nH]1)C(C)(C)C)C1CC1 [Compound B-167] | >100
CC(C)(C(=O)N[C@H](c1nc(-c2ccc(-c3ccc(-c4cnc([C@@H](NC(=O)C(C)(C)C5CCOC5)C(C)(C)C)[nH]4)cc3)cc2)c[nH]1)C(C)(C)C)C1CCOC1 (stereo partly shown) [Compound B-168] | >100
CC(C)(C)[C@H](NC(=O)c1cccc(B(O)O)c1)c1nc(-c2ccc(-c3ccc(-c4cnc([C@@H](NC(=O)c5cccc(B(O)O)c5)C(C)(C)C)[nH]4)cc3)cc2)c[nH]1 [Compound B-178] | >10
CC(C)(C)[C@H](NC(=O)C(C)(C)S(C)(=O)=O)c1nc(-c2ccc(-c3ccc(-c4cnc([C@@H](NC(=O)C(C)(C)S(C)(=O)=O)C(C)(C)C)[nH]4)cc3)cc2)c[nH]1 [Compound B-180] | >100
CC(C)(C)[C@H](NC(=O)CS(C)(=O)=O)c1nc(-c2ccc(-c3ccc(-c4cnc([C@@H](NC(=O)CS(C)(=O)=O)C(C)(C)C)[nH]4)cc3)cc2)c[nH]1 [Compound B-181] | >10

Structure (SMILES) | Fold-Synergistic 1a (Q30E) [fold]
CC(C)S(=O)(=O)CC(=O)N[C@H](c1nc(-c2ccc(-c3ccc(-c4cnc([C@@H](NC(=O)CS(=O)(=O)C(C)C)C(C)(C)C)[nH]4)cc3)cc2)c[nH]1)C(C)(C)C [Compound B-182] | >100
CC(C)(C)[C@H](NC(=O)C1CC12CCC2)c1nc(-c2ccc(-c3ccc(-c4cnc([C@@H](NC(=O)C5CC56CCC6)C(C)(C)C)[nH]4)cc3)cc2)c[nH]1 (stereo partly shown) [Compound B-183] | >100
CC(C)(C)[C@H](NC(=O)[C@@]1(C)CCC(F)(F)CO1)c1ncc(-c2ccc(C34CCC(c5cnc([C@@H](NC(=O)[C@@]6(C)CCC(F)(F)CO6)C(C)(C)C)[nH]5)(CC3)CC4)cc2)[nH]1 [Compound B-186, (R)—N—((S)-1-(5-(4-(4-(2-((S)-1-((R)-5,5-difluoro-2-methyltetrahydro-2H-pyran-2-carboxamido)-2,2-dimethylpropyl)-1H-imidazol-5-yl)bicyclo[2.2.2]octan-1-yl)phenyl)-1H-imidazol-2-yl)-2,2-dimethylpropyl)-5,5-difluoro-2-methyltetrahydro-2H-pyran-2-carboxamide] | >100
CC(C)(C)[C@H](NC(=O)[C@@]1(C)CCC(F)(F)CO1)c1ncc(-c2ccc([C@H]3C[C@@H]3c3ccc(-c4cnc([C@@H](NC(=O)[C@@]5(C)CCC(F)(F)CO5)C(C)(C)C)[nH]4)cc3)cc2)[nH]1 [Compound B-187] | >100
CC(C)(C)[C@H](NC(=O)C1CCC(F)(F)CC1)c1ncc(-c2ccc([C@@H]3C[C@H]3c3ccc(-c4cnc([C@@H](NC(=O)C5CCC(F)(F)CC5)C(C)(C)C)[nH]4)cc3)cc2)[nH]1 [Compound B-190] | >100
COC(=O)N[C@H](C(=O)N1CCC[C@H]1c1ncc(-c2ccc(-c3ccc(-c4cnc([C@@H](NC(=O)[C@@H]5CCCN5C(=O)OC(C)(C)C)C(C)(C)C)[nH]4)cc3)cc2)[nH]1)C(C)C [Compound B-191] | >10
COC(=O)NC(C(=O)N1CCCC1c1ncc(-c2ccc(-c3ccc(-c4cnc(C(NC(=O)C5CCC(F)(F)CC5)C(C)(C)C)[nH]4)cc3)cc2)[nH]1)C(C)C (stereo not shown) [Compound B-192] | >10
COC(=O)NC(C(=O)N1CCCC1c1ncc(-c2ccc(-c3ccc(-c4cnc(C(NC(=O)C5(C)CCC(F)(F)CO5)C(C)(C)C)[nH]4)cc3)cc2)[nH]1)C(C)C (stereo not shown) [Compound B-193] | >10
COC(=O)NC(C(=O)NC(c1ncc(-c2ccc(-c3ccc(-c4cnc(C5CCCN5C(=O)C(NC(=O)OC)C(C)C)[nH]4)cc3)cc2)[nH]1)C(C)(C)C)C(C)C (stereo not shown) [Compound B-194] | <10
COC(=O)NC(C(=O)N1CCCC1c1ncc(-c2ccc(-c3ccc(-c4cnc(C(NC(=O)C(C)(C)C)C(C)(C)C)[nH]4)cc3)cc2)[nH]1)C(C)C (stereo not shown) [Compound B-195] | >10
COC(=O)NC(C(=O)NC(c1ncc(-c2ccc(-c3ccc(-c4cnc(C5CCCN5C(=O)C(NC(=O)OC)C(C)C)[nH]4)cc3)cc2)[nH]1)C(C)(C)C)C(C)C (stereo not shown) [Compound B-196] | >10
CC(C)[C@H](NC(=O)C1CCC(F)(F)CC1)c1ncc(-c2ccc(-c3ccc(-c4cnc([C@@H](NC(=O)C5CCC(F)(F)CC5)C(C)C)n4C)cc3)cc2)n1C [Compound B-200] | <10
CC(C)C(NC(=O)C1(C)CCC(F)(F)CO1)c1ncc(-c2ccc(-c3ccc(-c4cnc(C(NC(=O)C5(C)CCC(F)(F)CO5)C(C)C)n4C)cc3)cc2)n1C (stereo not shown) [Compound B-201] | >10
CC(C)[C@H](NC(=O)C(C)(C)C)c1ncc(-c2ccc(-c3ccc(-c4cnc([C@@H](NC(=O)C(C)(C)C)C(C)C)n4C)cc3)cc2)n1C [Compound B-205] | <10
CN(C(=O)C1CCC(F)(F)CC1)[C@H](c1ncc(-c2ccc(-c3ccc(-c4cnc([C@@H](N(C)C(=O)C5CCC(F)(F)CC5)C(C)(C)C)[nH]4)cc3)cc2)[nH]1)C(C)(C)C [Compound B-206] | <10
CN(C(=O)C(C)(C)C)[C@H](c1ncc(-c2ccc(-c3ccc(-c4cnc([C@@H](N(C)C(=O)C(C)(C)C)C(C)(C)C)[nH]4)cc3)cc2)[nH]1)C(C)(C)C [Compound B-207] | <10
CC(C)(C)CN[C@H](c1nc(-c2ccc(-c3ccc(-c4c[nH]c([C@@H](NCC(C)(C)C)C(C)(C)C)n4)cc3)cc2)c[nH]1)C(C)(C)C [Compound L-1] | >100
CC(C)(C)[C@H](NCC1CCCCC1)c1nc(-c2ccc(-c3ccc(-c4c[nH]c([C@@H](NCC5CCCCC5)C(C)(C)C)n4)cc3)cc2)c[nH]1.O=C(O)C(F)(F)F [Compound L-2] | >100
CC(C)(C)OC(=O)NC(C)(C)C(=O)N[C@H](c1nc(-c2ccc(-c3ccc(-c4c[nH]c([C@@H](NC(=O)C(C)(C)NC(=O)OC(C)(C)C)C(C)(C)C)n4)cc3)cc2)c[nH]1)C(C)(C)C [Compound L-3] | >100
CC(C)(C)OC(=O)NC1(C(=O)N[C@H](c2nc(-c3ccc(-c4ccc(-c5c[nH]c([C@@H](NC(=O)C6(NC(=O)OC(C)(C)C)CCC6)C(C)(C)C)n5)cc4)cc3)c[nH]2)C(C)(C)C)CCC1.O=C(O)C(F)(F)F.O=C(O)C(F)(F)F [Compound L-5] | >100
